Data taken from patent publication US11813340B2, “PSMA targeted radiohalogenated urea-polyaminocarboxylates for cancer radiotherapy” (The Johns Hopkins University, priority 2018, dated 2023).
Read-outs that look alike come from different tables or passages of the source.

Test system: PSMA+PC3-PIP and PSMA-PC3-flu flank xenografts
Protocol: Final compounds were purified by HPLC. […] Organs were harvested 1, 4, and 24 h post-injection (n=5 per time point).

[1] = 1-hour, Blocker VK-02-90 0.5 nmole
[2] = 1-hour, Blocker VK-02-90 1.0 nmole
[3] = 1-hour, Blocker VK-02-90 5.0 nmole
[4] = 1-hour, Blocker YC-I-27 0.5 nmole
[5] = 1-hour, Blocker YC-I-27 1.0 nmole
[6] = 1-hour, Blocker YC-I-27 5 nmole
[7] = 4-hr, Blocker VK-02-90 0.5 nmole
[8] = 4-hr, Blocker VK-02-90 1.0 nmole
[9] = 4-hr, Blocker VK-02-90 5.0 nmole
[10] = 4-hr, Blocker YC-I-27 0.5 nmole
[11] = 4-hr, Blocker YC-I-27 1.0 nmole
[12] = 24-hour, Blocker VK-02-90 0.5 nmole
[13] = 24-hour, Blocker VK-02-90 1.0 nmole
[14] = 24-hour, Blocker VK-02-90 5.0 nmole
[15] = 24-hour, Blocker YC-I-27 0.5 nmole
[16] = 24-hour, Blocker YC-I-27 1.0 nmole
[17] = 24-hour, Blocker YC-I-27 5 nmole

O=C([O-])CN1CCN(CC(=O)[O-])CCN(CC(=O)NCCCCC(=O)N(CCCC[C@H](NC(=O)N[C@@H](CCC(=O)O)C(=O)O)C(=O)O)Cc2ccc([125I])cc2)CCN(CC(=O)[O-])CC1.[Lu+3] [[^125I]VK-02-90-Lu]
Biodistribution, Blood (1-hour, Blocker None): 1.1 ± 0.1 % injected dose/g | Biodistribution, Flu tumor (1-hour, Blocker None): 1.0 ± 0.2 % injected dose/g | Biodistribution, Kidneys (1-hour, Blocker None): 129 ± 15 % injected dose/g | Biodistribution, Lacrimal glands (1-hour, Blocker None): 2.1 ± 0.9 % injected dose/g | Biodistribution, PIP tumor (1-hour, Blocker None): 26.0 ± 3.0 % injected dose/g | Biodistribution, Salivary glands (1-hour, Blocker None): 2.3 ± 0.5 % injected dose/g | Biodistribution, Spleen (1-hour, Blocker None): 4.3 ± 0.9 % injected dose/g | Biodistribution, Stomach (1-hour, Blocker None): 1.7 ± 0.3 % injected dose/g | Biodistribution, Blood [1]: 0.4 ± 0.1 % injected dose/g | Biodistribution, Flu tumor [1]: 0.6 ± 0.3 % injected dose/g | Biodistribution, Kidneys [1]: 9.9 ± 2.5 % injected dose/g | Biodistribution, Lacrimal glands [1]: 0.4 ± 0.1 % injected dose/g | Biodistribution, PIP tumor [1]: 36.7 ± 6.8 % injected dose/g | Biodistribution, Salivary glands [1]: 0.2 ± 0.03 % injected dose/g | Biodistribution, Spleen [1]: 1.1 ± 0.4 % injected dose/g | Biodistribution, Stomach [1]: 0.2 ± 0.1 % injected dose/g | Biodistribution, Blood [2]: 0.4 ± 0.1 % injected dose/g | Biodistribution, Flu tumor [2]: 0.5 ± 0.1 % injected dose/g | Biodistribution, Kidneys [2]: 6.5 ± 0.9 % injected dose/g | Biodistribution, Lacrimal glands [2]: 0.4 ± 0.1 % injected dose/g | Biodistribution, PIP tumor [2]: 35.1 ± 9.0 % injected dose/g | Biodistribution, Salivary glands [2]: 0.2 ± 0.06 % injected dose/g | Biodistribution, Spleen [2]: 1.1 ± 0.4 % injected dose/g | Biodistribution, Stomach [2]: 0.2 ± 0.04 % injected dose/g | Biodistribution, Blood [3]: 0.5 ± 0.1 % injected dose/g | Biodistribution, Flu tumor [3]: 0.9 ± 0.3 % injected dose/g | Biodistribution, Kidneys [3]: 4.2 ± 0.5 % injected dose/g | Biodistribution, Lacrimal glands [3]: 0.4 ± 0.03 % injected dose/g | Biodistribution, PIP tumor [3]: 23.5 ± 4.3 % injected dose/g | Biodistribution, Salivary glands [3]: 0.3 ± 0.1 % injected dose/g | Biodistribution, Spleen [3]: 0.7 ± 0.2 % injected dose/g | Biodistribution, Stomach [3]: 0.2 ± 0.06 % injected dose/g | Biodistribution, Blood [4]: 1.1 ± 0.1 % injected dose/g | Biodistribution, Flu tumor [4]: 1.0 ± 0.3 % injected dose/g | Biodistribution, Kidneys [4]: 4.2 ± 1.3 % injected dose/g | Biodistribution, Lacrimal glands [4]: 0.5 ± 0.1 % injected dose/g | Biodistribution, PIP tumor [4]: 41.8 ± 4.2 % injected dose/g | Biodistribution, Salivary glands [4]: 3.2 ± 0.7 % injected dose/g | Biodistribution, Spleen [4]: 0.8 ± 0.2 % injected dose/g | Biodistribution, Stomach [4]: 1.8 ± 0.2 % injected dose/g | Biodistribution, Blood [5]: 1.0 ± 0.1 % injected dose/g | Biodistribution, Flu tumor [5]: 0.8 ± 0.2 % injected dose/g | Biodistribution, Kidneys [5]: 2.4 ± 0.8 % injected dose/g | Biodistribution, Lacrimal glands [5]: 0.6 ± 0.05 % injected dose/g | Biodistribution, PIP tumor [5]: 29.1 ± 2.4 % injected dose/g | Biodistribution, Salivary glands [5]: 2.9 ± 0.4 % injected dose/g | Biodistribution, Spleen [5]: 0.6 ± 0.1 % injected dose/g | Biodistribution, Stomach [5]: 1.8 ± 0.3 % injected dose/g | Biodistribution, Blood [6]: 1.1 ± 0.2 % injected dose/g | Biodistribution, Flu tumor [6]: 0.8 ± 0.2 % injected dose/g | Biodistribution, Kidneys [6]: 2.3 ± 0.7 % injected dose/g | Biodistribution, Lacrimal glands [6]: 1.1 ± 0.6 % injected dose/g | Biodistribution, PIP tumor [6]: 20.1 ± 2.8 % injected dose/g | Biodistribution, Salivary glands [6]: 5.1 ± 1.7 % injected dose/g | Biodistribution, Spleen [6]: 0.7 ± 0.1 % injected dose/g | Biodistribution, Stomach [6]: 2.2 ± 0.7 % injected dose/g | Biodistribution, Blood (4-hr, Blocker None): 0.3 ± 0.2 % injected dose/g | Biodistribution, Flu tumor (4-hr, Blocker None): 0.25 ± 0.1 % injected dose/g | Biodistribution, Kidneys (4-hr, Blocker None): 9.5 ± 2.5 % injected dose/g | Biodistribution, Lacrimal glands (4-hr, Blocker None): 0.4 ± 0.2 % injected dose/g | Biodistribution, PIP tumor (4-hr, Blocker None): 27.4 ± 7.5 % injected dose/g | Biodistribution, Salivary glands (4-hr, Blocker None): 1.8 ± 0.2 % injected dose/g | Biodistribution, Spleen (4-hr, Blocker None): 0.6 ± 0.2 % injected dose/g | Biodistribution, Stomach (4-hr, Blocker None): 0.8 ± 0.5 % injected dose/g | Biodistribution, Blood [7]: 0.02 ± 0.01 % injected dose/g | Biodistribution, Flu tumor [7]: 0.1 ± 0.02 % injected dose/g | Biodistribution, Kidneys [7]: 2.1 ± 0.7 % injected dose/g | Biodistribution, Lacrimal glands [7]: 0.1 ± 0.03 % injected dose/g | Biodistribution, PIP tumor [7]: 24.8 ± 2.0 % injected dose/g | Biodistribution, Salivary glands [7]: 0.08 ± 0.04 % injected dose/g | Biodistribution, Spleen [7]: 0.2 ± 0.1 % injected dose/g | Biodistribution, Stomach [7]: 0.06 ± 0.01 % injected dose/g | Biodistribution, Blood [8]: 0.2 ± 0.01 % injected dose/g | Biodistribution, Flu tumor [8]: 0.1 ± 0.03 % injected dose/g | Biodistribution, Kidneys [8]: 1.4 ± 0.4 % injected dose/g | Biodistribution, Lacrimal glands [8]: 0.1 ± 0.05 % injected dose/g | Biodistribution, PIP tumor [8]: 27.1 ± 3.6 % injected dose/g | Biodistribution, Salivary glands [8]: 0.1 ± 0.02 % injected dose/g | Biodistribution, Spleen [8]: 0.2 ± 0.1 % injected dose/g | Biodistribution, Stomach [8]: 0.1 ± 0.03 % injected dose/g | Biodistribution, Blood [9]: 0 % injected dose/g | Biodistribution, Flu tumor [9]: 0.1 ± 0.01 % injected dose/g | Biodistribution, Kidneys [9]: 0.9 ± 0.3 % injected dose/g | Biodistribution, Lacrimal glands [9]: 0.1 ± 0.1 % injected dose/g | Biodistribution, PIP tumor [9]: 18.8 ± 2.0 % injected dose/g | Biodistribution, Salivary glands [9]: 0.05 ± 0.02 % injected dose/g | Biodistribution, Spleen [9]: 0.15 ± 0.08 % injected dose/g | Biodistribution, Stomach [9]: 0.1 ± 0.04 % injected dose/g | Biodistribution, Blood [10]: 0.4 ± 0.06 % injected dose/g | Biodistribution, Flu tumor [10]: 0.3 ± 0.1 % injected dose/g | Biodistribution, Kidneys [10]: 0.9 ± 0.1 % injected dose/g | Biodistribution, Lacrimal glands [10]: 0.2 ± 0.02 % injected dose/g | Biodistribution, PIP tumor [10]: 24.0 ± 3.2 % injected dose/g | Biodistribution, Salivary glands [10]: 3.3 ± 0.8 % injected dose/g | Biodistribution, Spleen [10]: 0.25 ± 0.07 % injected dose/g | Biodistribution, Stomach [10]: 1.3 ± 0.2 % injected dose/g | Biodistribution, Blood [11]: 0.4 ± 0.05 % injected dose/g | Biodistribution, Flu tumor [11]: 0.3 ± 0.1 % injected dose/g | Biodistribution, Kidneys [11]: 0.6 ± 0.03 % injected dose/g | Biodistribution, Lacrimal glands [11]: 0.2 ± 0.03 % injected dose/g | Biodistribution, PIP tumor [11]: 23.8 ± 1.1 % injected dose/g | Biodistribution, Salivary glands [11]: 3.2 ± 0.7 % injected dose/g | Biodistribution, Spleen [11]: 0.2 ± 0.04 % injected dose/g | Biodistribution, Stomach [11]: 1.2 ± 0.2 % injected dose/g | Biodistribution, Blood (4-hr, Blocker YC-I-27 5 nmole): 0.4 ± 0.1 % injected dose/g | Biodistribution, Flu tumor (4-hr, Blocker YC-I-27 5 nmole): 0.3 ± 0.1 % injected dose/g | Biodistribution, Kidneys (4-hr, Blocker YC-I-27 5 nmole): 0.7 ± 0.1 % injected dose/g | Biodistribution, Lacrimal glands (4-hr, Blocker YC-I-27 5 nmole): 0.5 ± 0.5 % injected dose/g | Biodistribution, Salivary glands (4-hr, Blocker YC-I-27 5 nmole): 5.0 ± 1.4 % injected dose/g | Biodistribution, Spleen (4-hr, Blocker YC-I-27 5 nmole): 0.3 ± 0.06 % injected dose/g | Biodistribution, Stomach (4-hr, Blocker YC-I-27 5 nmole): 1.6 ± 0.4 % injected dose/g | Biodistribution, Blood (24-hour, Blocker None): 0 % injected dose/g | Biodistribution, Flu tumor (24-hour, Blocker None): 0.05 ± 0.01 % injected dose/g | Biodistribution, Kidneys (24-hour, Blocker None): 1.3 ± 0.7 % injected dose/g | Biodistribution, Lacrimal glands (24-hour, Blocker None): 0.05 ± 0.04 % injected dose/g | Biodistribution, PIP tumor (24-hour, Blocker None): 18.0 ± 6.0 % injected dose/g | Biodistribution, Salivary glands (24-hour, Blocker None): 0.2 ± 0.08 % injected dose/g | Biodistribution, Spleen (24-hour, Blocker None): 0.1 ± 0.05 % injected dose/g | Biodistribution, Stomach (24-hour, Blocker None): 0.1 ± 0.04 % injected dose/g | Biodistribution, Blood [12]: 0.1 ± 0.01 % injected dose/g | Biodistribution, Flu tumor [12]: 0.04 ± 0.01 % injected dose/g | Biodistribution, Kidneys [12]: 0.5 ± 0.2 % injected dose/g | Biodistribution, Lacrimal glands [12]: 0.03 ± 0.02 % injected dose/g | Biodistribution, PIP tumor [12]: 16.3 ± 4.2 % injected dose/g | Biodistribution, Salivary glands [12]: 0.02 ± 0.01 % injected dose/g | Biodistribution, Spleen [12]: 0.04 ± 0.01 % injected dose/g | Biodistribution, Stomach [12]: 0.04 ± 0.04 % injected dose/g | Biodistribution, Blood [13]: 0 % injected dose/g | Biodistribution, Flu tumor [13]: 0.03 ± 0.01 % injected dose/g | Biodistribution, Kidneys [13]: 0.4 ± 0.1 % injected dose/g | Biodistribution, Lacrimal glands [13]: 0 % injected dose/g | Biodistribution, Salivary glands [13]: 0 % injected dose/g | Biodistribution, Spleen [13]: 0 % injected dose/g | Biodistribution, Stomach [13]: 0.03 ± 0.02 % injected dose/g | Biodistribution, Blood [14]: 0 % injected dose/g | Biodistribution, Flu tumor [14]: 0.02 ± 0.01 % injected dose/g | Biodistribution, Kidneys [14]: 0.2 ± 0.2 % injected dose/g | Biodistribution, Lacrimal glands [14]: 0.01 ± 0.03 % injected dose/g | Biodistribution, Salivary glands [14]: 0.01 ± 0.01 % injected dose/g | Biodistribution, Spleen [14]: 0.01 ± 0.03 % injected dose/g | Biodistribution, Stomach [14]: 0.04 ± 0.03 % injected dose/g | Biodistribution, Blood [15]: 0.03 ± 0.03 % injected dose/g | Biodistribution, Flu tumor [15]: 0.04 ± 0.02 % injected dose/g | Biodistribution, Kidneys [15]: 0.1 ± 0.05 % injected dose/g | Biodistribution, Lacrimal glands [15]: 0.03 ± 0.04 % injected dose/g | Biodistribution, PIP tumor [15]: 13.4 ± 3.8 % injected dose/g | Biodistribution, Salivary glands [15]: 0.6 ± 0.5 % injected dose/g | Biodistribution, Spleen [15]: 0.02 ± 0.02 % injected dose/g | Biodistribution, Stomach [15]: 0.1 ± 0.1 % injected dose/g | Biodistribution, Blood [16]: 0.02 ± 0.01 % injected dose/g | Biodistribution, Flu tumor [16]: 0.03 ± 0.01 % injected dose/g | Biodistribution, Lacrimal glands [16]: 0.02 ± 0.02 % injected dose/g | Biodistribution, Salivary glands [16]: 0.4 ± 0.2 % injected dose/g | Biodistribution, Spleen [16]: 0.04 ± 0.02 % injected dose/g | Biodistribution, Stomach [16]: 0.08 ± 0.03 % injected dose/g | Biodistribution, Blood [17]: 0.02 ± 0.01 % injected dose/g | Biodistribution, Flu tumor [17]: 0.03 ± 0.01 % injected dose/g | Biodistribution, Kidneys [17]: 0.05 ± 0.02 % injected dose/g | Biodistribution, Lacrimal glands [17]: 0.01 ± 0.02 % injected dose/g | Biodistribution, PIP tumor [17]: 6.6 ± 3.2 % injected dose/g | Biodistribution, Salivary glands [17]: 0.4 ± 0.1 % injected dose/g | Biodistribution, Spleen [17]: 0.01 ± 0.03 % injected dose/g | Biodistribution, Stomach [17]: 0.07 ± 0.1 % injected dose/g
